The source of these data is patent US20240384268A1, “Oligonucleotides” (Hudson Institute of Medical Research, priority 2021, published 2024).

For the data set, the target named is T1, TLR8 (Homo sapiens, UniProt Q9NR97).
T1 sequence (Q9NR97 27-1041): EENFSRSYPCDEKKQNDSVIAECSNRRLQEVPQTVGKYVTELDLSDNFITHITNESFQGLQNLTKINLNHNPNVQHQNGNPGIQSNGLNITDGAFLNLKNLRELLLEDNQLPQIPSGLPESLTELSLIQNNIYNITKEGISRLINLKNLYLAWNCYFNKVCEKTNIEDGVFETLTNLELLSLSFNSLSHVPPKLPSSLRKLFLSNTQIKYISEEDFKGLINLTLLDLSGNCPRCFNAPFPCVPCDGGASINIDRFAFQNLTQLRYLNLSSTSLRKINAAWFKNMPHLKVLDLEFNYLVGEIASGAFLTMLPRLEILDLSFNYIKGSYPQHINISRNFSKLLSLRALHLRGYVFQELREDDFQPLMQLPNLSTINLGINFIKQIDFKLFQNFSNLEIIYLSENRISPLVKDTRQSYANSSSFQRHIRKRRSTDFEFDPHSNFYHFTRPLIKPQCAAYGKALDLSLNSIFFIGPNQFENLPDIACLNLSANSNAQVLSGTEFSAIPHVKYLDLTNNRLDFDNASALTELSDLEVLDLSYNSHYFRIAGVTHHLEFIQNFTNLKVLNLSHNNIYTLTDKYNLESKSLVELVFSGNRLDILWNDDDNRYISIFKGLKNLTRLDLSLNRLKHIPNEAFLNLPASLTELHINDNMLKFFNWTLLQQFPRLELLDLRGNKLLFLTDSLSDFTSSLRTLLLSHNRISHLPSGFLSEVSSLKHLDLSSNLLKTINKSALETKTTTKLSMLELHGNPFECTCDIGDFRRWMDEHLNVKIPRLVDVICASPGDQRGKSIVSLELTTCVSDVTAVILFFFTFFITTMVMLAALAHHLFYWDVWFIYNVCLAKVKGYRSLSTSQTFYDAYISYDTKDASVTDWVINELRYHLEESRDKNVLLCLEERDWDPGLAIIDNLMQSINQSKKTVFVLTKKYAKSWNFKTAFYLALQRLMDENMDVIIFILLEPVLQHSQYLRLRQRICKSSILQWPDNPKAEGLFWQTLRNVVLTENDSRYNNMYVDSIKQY
In words: HEK-TLR8 NF-κB-luciferase reporter, R848 or Motolimod stimulation (potentiation or inhibition). The class given is cell-based. On the set-up: expressed in transfected cells; host or cells: 293XLhTLR8 (HEK293). The settings on record: for TLR8 100 nM (averaged NF-κB-Luciferase level relative to R848 condition, fold increase): ASO 100 nM; for TLR8 100 nM (averaged NF-κB-Luciferase level relative to R848 condition, fold increase) / TLR8 500 nM (averaged NF-κB-Luciferase level relative to R848 condition, fold increase): relative to R848 only; for TLR8 500 nM (averaged NF-κB-Luciferase level relative to R848 condition, fold increase): ASO 500 nM; for TLR8 HEK 5 uM: 3mer 2'OMe ASO at 5 uM, value relative to Ligand only = 1.000, NT = 0.000. The procedure: (§1) In such examples, potentiation of TLR8 activity can be identified by observation of an overall increased TLR8 response of the cell population, or a higher proportion of cells having TLR8-positive activity as compared to a negative control condition in which cells are treated with TLR8 agonist in the absence of the oligonucleotide (or in the presence of an appropriate control non-potentiating agent). In one example, 293XLhTLR8 (referred to as HEK-TLR8) cells are transfected with pNF-κB-Luc4 reporter, incubated with an oligonucleotide, and then stimulated with R848. TLR8 activity can be determined by a luciferase assay, which measures activated NF-κB by luminescence. TLR8 activity can also be analysed by measuring cytokine levels, for example by ELISA.
as §1, with “inhibition” for “potentiation”, “decreased” for “increased”, “lower” for “higher”, “positive” for “negative”, “inhibitory” for “non-potentiating”
For cGAS stimulations, cells were treated for indicated duration with ASOs, prior to transfection with ISD70 (human cells) or ISD45 (mouse cells) (the ASOs were not washed off prior to ISD transfection unless otherwise indicated). The cGAS ligands ISD45 (Stetson and Medzhitov, 2006) and ISD70 (also known as VACV-70 (Unterholzner et al., 2010)) (Table 1) were resuspended as follows: 5 1d of sense and 5 μl of antisense strands at 10 μg/μl were added to 90 μl PBS under sterile conditions, heated at 75° C. for 30 min, prior to letting cool down at room temperature and aliquoting (stock at 1 μg/1 l). The ISDs were transfected at a concentration of […] at a ratio of 1 μg:1 μl with Lipofectamine 2000 in Opti-MEM (Thermo Fisher Scientific). HEK-TLR3, HEK-TLR7 and […] were treated with indicated concentration of ASOs for 20-50 min, prior to stimulation with poly(I:C) (Invivogen), R848 (Invivogen), Motolimod (MedChemExpress) and the Class B CpG oligonucleotides ODN 2006 (synthesised by IDT and resuspended in RNase-free TE buffer [Table 1]), respectively. The TLR2/1 agonist PAM3CSK4 (Invivogen), the TLR4 agonist lipopolysaccharide (Invivogen), the Class B CpG oligonucleotides ODN 1826 (synthesised by IDT and resuspended in RNase-free TE buffer), the mouse Sting agonist DMXAA (Cayman) and the human STING agonist (compound #3 from (Raanjulu et al., 2018), referred to as GSK herein—kind gift from Cancer Therapeutics CRC, Australia) were used at indicated concentrations. Aspirin (Sigma—A2093) was resuspended in pure medium to 10 mM, filter sterilised and added to the cells at 2 mM final. All ASOs were synthesised by Integrated DNA Technologies (IDT), and resuspended in RNase-free TE buffer, pH 8.0 (Thermo Fisher Scientific). Cell viability was assessed by adding 1× fresh resazurin solution to the wells (10λ solution made up with 7 mg resazurin [Sigma—R7017] dissolved in 3.5 ml PBS, sterile filtered at […]) for 4 h, prior to reading at with a Fluostar OPTIMA (BMG LABTECH) plate-reader (fluorescence: Excitation 535 nm, Emission 590); wells with medium only and 1× resazurin were used as blanks.

In the oligonucleotide strings, read from the 5' end, every base follows the letter of its sugar. An asterisk marks phosphorothioate; unmarked linkages are phosphodiester. Other units and linkages are bracketed, terminal groups are in braces. A string of capitals states the bases alone. d = 2'-deoxy (DNA); m = 2'-O-methyl

Regarding “GGTTACGGCTCAGTAT (antisense; LNA-modified, pattern not given here) [CAMSAP1-4295 LNA KL]”, the “TLR8 100 nM (averaged NF-κB-Luciferase level relative to R848 condition, fold increase)” value amounted to 0.804 and the “TLR8 500 nM (averaged NF-κB-Luciferase level relative to R848 condition, fold increase)” value is reported as 1.848.
For dG*dC*dC [GCC], where the note is “HEK-TLR8”, the “TLR8 HEK 5 uM” value worked out at 0.701.
Same read-out and setting: for “dA*dG*dA (DNA AGA; listed as DNA, chemistry not fully specified)” the value was 1.520.
As for “mGmUmA (GUA; all 2'-O-methyl, backbone not given here; further chemistry not fully specified) [shortMut1-3b]”, the “TLR8 HEK 5 uM” value (HEK-TLR8) is recorded as 0.792. Further, where the note is “HEK-TLR8, 5 μM naked 3-mer, Motolimod”, the “effect of 3-mer 2′OMe PS oligos on TLR8 sensing in HEK-TLR8 (in words)” value is recorded as “robustly inhibitory”.
Regarding “GGCTGGAATCCGAGTT (antisense; LNA-modified, pattern not given here) [EGFR-4705 LNA KL]”, the “TLR8 100 nM (averaged NF-κB-Luciferase level relative to R848 condition, fold increase)” value stood at 0.562 and the “TLR8 500 nM (averaged NF-κB-Luciferase level relative to R848 condition, fold increase)” value amounted to 0.577.
For CUC (mC*mU*mC), under “HEK-TLR8”, the “TLR8 HEK 5 uM” value came to 0.685.
Still for that read-out and setting: the result for UAC (mU*mA*mC) reads 0.813; that for CUA (mC*mU*mA), 0.642.
For dG*dC*dG [GCG], under “HEK-TLR8”, the “TLR8 HEK 5 uM” value is 1.191.
On the same count and under the same terms, the result for “mUmGmA (mU*mG*mA) [UGA, 3-mer 2′OMe PS oligo]” reads 1.331; that for “dC*dA*dA (CAA; listed as DNA, chemistry not fully specified)”, 0.811; that for AUG (mA*mU*mG), 0.828.
With “GTCTTGGCTTCGTGGA (antisense; LNA-modified, pattern not given here) [MB21D1-522 LNA V1]”, the “TLR8 100 nM (averaged NF-κB-Luciferase level relative to R848 condition, fold increase)” value is 0.678 and the “TLR8 500 nM (averaged NF-κB-Luciferase level relative to R848 condition, fold increase)” value stood at 2.137.
Regarding “mAmUmC (mA*mU*mC) [AUC, 3-mer 2′OMe PS oligo]”, under “HEK-TLR8”, the “TLR8 HEK 5 uM” value stood at 0.674.
As to “GCATCCACCACGTCGT (antisense; LNA-modified, pattern not given here) [EGFR-3267 LNA V1]”, the “TLR8 100 nM (averaged NF-κB-Luciferase level relative to R848 condition, fold increase)” value is 0.607 and the “TLR8 500 nM (averaged NF-κB-Luciferase level relative to R848 condition, fold increase)” value came out at 0.738.
“dA*dA*dC (DNA AAC; listed as DNA, chemistry not fully specified)”: the “TLR8 HEK 5 uM” value (HEK-TLR8) is 0.696.
Same read-out and setting: the result for “dC*dC*dC (CCC; listed as DNA, chemistry not fully specified)” reads 0.756.
With “TCCAACACTTCGTGGG (antisense; LNA-modified, pattern not given here) [HPRT LNA-669 V1]”, the “TLR8 100 nM (averaged NF-κB-Luciferase level relative to R848 condition, fold increase)” value is given as 0.413 and the “TLR8 500 nM (averaged NF-κB-Luciferase level relative to R848 condition, fold increase)” value came to 0.491.
The matching figures for “GTGTCTGGAAGCTTCC (antisense; LNA-modified, pattern not given here) [CTNN2B-809 LNA V1]”: 0.923 and 2.057.
For “CCATCCATGAGGTCCT (antisense; LNA-modified, pattern not given here) [CTNN2B-2545 LNA V1]”, in that order: 0.675 and 1.169.
Consider AUU (mA*mU*mU), for which the “TLR8 HEK 5 uM” value (HEK-TLR8) amounted to 0.762.
As for CGU (mC*mG*mU), where the note is “HEK-TLR8”, the “TLR8 HEK 5 uM” value is given as 1.327.
UGU (mU*mG*mU): the “TLR8 HEK 5 uM” value (HEK-TLR8) was determined as 1.120.
With “TGCACACTTCGTACCC (antisense; LNA-modified, pattern not given here) [CAMSAP1-4916 LNA V1]”, the “TLR8 100 nM (averaged NF-κB-Luciferase level relative to R848 condition, fold increase)” value turned out to be 0.411 and the “TLR8 500 nM (averaged NF-κB-Luciferase level relative to R848 condition, fold increase)” value was found to be 0.370.
